Results published in ChEMBL document CHEMBL1201862, “PubChem BioAssay data set” (2004).
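96-well plates; 48 h exposure; 5 concentrations. Endpoints by linear interpolation between flanking doses. Not reached: highest tested concentration assigned. Abbreviation: GI50, concentration required for 50% inhibition of growth.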 Activity calls are given as the source filed them. Cut-off read from the data, not from the text of the source: active = GI50 up to about 1.1 µM and inactive = higher.

Legend:
Assay in all cases: DTP human tumour cell line panel, 48 h
[1] = system: A498
[2] = system: A549
[3] = system: ACHN
[4] = system: BT-549
[5] = system: CAKI-1
[6] = system: CCRF-CEM
[7] = system: DU-145
[8] = system: EKVX
[9] = system: HCC 2998
[10] = system: HCT-116
[11] = system: HCT-15
[12] = system: HOP-62
[13] = system: HOP-92
[14] = system: HT-29
[15] = system: Hs-578T
[16] = system: IGROV-1
[17] = system: K562
[18] = system: KM12
[19] = system: LOX IMVI
[20] = system: M14
[21] = system: MCF7
[22] = system: MDA-MB-231
[23] = system: MDA-MB-435
[24] = system: MDA-N
[25] = system: MOLT-4
[26] = system: Malme-3M
[27] = system: NCI-H226
[28] = system: NCI-H23
[29] = system: NCI-H460
[30] = system: NCI/ADR-RES
[31] = system: OVCAR-3
[32] = system: OVCAR-4
[33] = system: OVCAR-5
[34] = system: OVCAR-8
[35] = system: PC-3
[36] = system: SF-268
[37] = system: SF-295
[38] = system: SF-539
[39] = system: SK-MEL-28
[40] = system: SK-MEL-5
[41] = system: SK-OV-3
[42] = system: SN12C
[43] = system: SNB-19
[44] = system: SNB-75
[45] = system: SW-620
[46] = system: T47D
[47] = system: TK-10
[48] = system: U-251
[49] = system: UACC-257
[50] = system: UACC-62
[51] = system: UO-31
[52] = system: 786-0
[53] = system: COLO 205
[54] = system: RPMI-8226
[55] = system: RXF 393
[56] = system: SK-MEL-2

COc1cc(C2c3[nH]c4ccccc4c3[C@@H](Nc3ccc(F)cc3)[C@H]3COC(=O)N23)cc(OC)c1O (stereo partly drawn)
GI50 [1]: 2.13 µM (inactive) | GI50 [2]: 0.465 µM (active) | GI50 [3]: 0.248 µM (active) | GI50 [4]: 1.36 µM (inactive) | GI50 [5]: 0.828 µM (active) | GI50 [6]: 0.296 µM (active) | GI50 [7]: 0.759 µM (active) | GI50 [8]: 2.55 µM (inactive) | GI50 [9]: 1.58 µM (inactive) | GI50 [10]: 1.89 µM (inactive) | GI50 [11]: 1.66 µM | GI50 [12]: 1.01 µM (active) | GI50 [13]: 2.26 µM (inactive) | GI50 [14]: 3.12 µM (inactive) | GI50 [15]: 0.0962 µM (active) | GI50 [16]: 1.32 µM (inactive) | GI50 [17]: 1.45 µM (inactive) | GI50 [18]: 1.91 µM (inactive) | GI50 [19]: 1.21 µM (inactive) | GI50 [20]: 2.02 µM (inactive) | GI50 [21]: 0.622 µM (active) | GI50 [22]: 3.44 µM (inactive) | GI50 [23]: 2.5 µM (inactive) | GI50 [24]: 2.3 µM (inactive) | GI50 [25]: 0.287 µM (active) | GI50 [26]: 2.49 µM (inactive) | GI50 [27]: 0.815 µM (active) | GI50 [28]: 1.42 µM (inactive) | GI50 [29]: 0.957 µM (active) | GI50 [30]: 8.13 µM (inactive) | GI50 [31]: 1.92 µM (inactive) | GI50 [32]: 2.55 µM (inactive) | GI50 [33]: 1.79 µM (inactive) | GI50 [34]: 2.7 µM (inactive) | GI50 [35]: 1.91 µM (inactive) | GI50 [36]: 1.55 µM (inactive) | GI50 [37]: 0.794 µM (active) | GI50 [38]: 1.26 µM (inactive) | GI50 [39]: 2.01 µM (inactive) | GI50 [40]: 1.14 µM (inactive) | GI50 [41]: 1.1 µM (active) | GI50 [42]: 1.35 µM (inactive) | GI50 [43]: 1.26 µM (inactive) | GI50 [44]: 1.69 µM (inactive) | GI50 [45]: 1.23 µM (inactive) | GI50 [46]: 2.25 µM (inactive) | GI50 [47]: 1.97 µM (inactive) | GI50 [48]: 1.45 µM (inactive) | GI50 [49]: 3.77 µM (inactive) | GI50 [50]: 1.37 µM (inactive) | GI50 [51]: 1.09 µM (active)

C[C@H]1S[C@H](c2c(F)cccc2F)n2c1nc1ccccc12
GI50 [52]: 64.9 µM (inactive) | GI50 [2]: 47.1 µM (inactive) | GI50 [3]: 55.1 µM (inactive) | GI50 [4]: 52.8 µM (inactive) | GI50 [5]: 74 µM (inactive) | GI50 [6]: 40.5 µM (inactive) | GI50 [53]: 37 µM (inactive) | GI50 [7]: > 100 µM (inactive) | GI50 [8]: 66.2 µM (inactive) | GI50 [9]: 64.7 µM (inactive) | GI50 [10]: 34.6 µM (inactive) | GI50 [11]: 47 µM | GI50 [12]: > 100 µM (inactive) | GI50 [14]: 47.3 µM (inactive) | GI50 [15]: 88.7 µM (inactive) | GI50 [16]: > 100 µM (inactive) | GI50 [17]: 35.3 µM (inactive) | GI50 [18]: 86.5 µM (inactive) | GI50 [20]: 38.5 µM (inactive) | GI50 [21]: 33.8 µM (inactive) | GI50 [22]: 68.7 µM (inactive) | GI50 [23]: 34 µM (inactive) | GI50 [24]: 59.2 µM (inactive) | GI50 [25]: 40.6 µM (inactive) | GI50 [26]: 41.5 µM (inactive) | GI50 [27]: > 100 µM (inactive) | GI50 [28]: 34.8 µM (inactive) | GI50 [29]: 25.4 µM (inactive) | GI50 [30]: 44.2 µM (inactive) | GI50 [31]: 24.2 µM (inactive) | GI50 [32]: 45.5 µM (inactive) | GI50 [33]: 66.8 µM (inactive) | GI50 [34]: 69 µM (inactive) | GI50 [35]: 33.7 µM (inactive) | GI50 [54]: 37.5 µM (inactive) | GI50 [55]: 28.6 µM (inactive) | GI50 [36]: 60.5 µM (inactive) | GI50 [37]: 39.1 µM (inactive) | GI50 [39]: 71.3 µM (inactive) | GI50 [56]: 15.1 µM (inactive) | GI50 [40]: 20.2 µM (inactive) | GI50 [41]: 38.4 µM (inactive) | GI50 [42]: 74.1 µM (inactive) | GI50 [43]: > 100 µM (inactive) | GI50 [44]: > 100 µM (inactive) | GI50 [45]: 88.1 µM (inactive) | GI50 [46]: 29.2 µM (inactive) | GI50 [47]: > 100 µM (inactive) | GI50 [48]: 54.5 µM (inactive) | GI50 [49]: 50.2 µM (inactive) | GI50 [50]: 63.1 µM (inactive) | GI50 [51]: 34.4 µM (inactive)
